25 molecules from patent US12668599B2, “Heterobifunctional compounds and methods of treating disease” (Halda Therapeutics OpCo, Inc., priority 2023, dated 2026) can be followed below.

The structures appear in SMILES notation. Some results are limits rather than exact numbers.

One assay deals with VCaP cells. In words: Cellular growth inhibition assay for VCaP cells (CellTiter-Glo 2.0, 72 hours). The assay is classed as cell-based, human. To be noted: for GI50: CellTiter-Glo 2.0.
Assay [1] has as its system T-Rex 293 cell line SC3 cells having increased expression of androgen receptor protein due to exposure to doxycycline. The assay is described as follows: Cellular growth inhibition, T-Rex 293 SC3 cells with doxycycline-induced androgen receptor (CellTiter-Glo 2.0, 72 hours). The assay is classed as cell-based. As to conditions: for GI50: T-Rex 293 SC3 cells with 10 ng/ml doxycycline (increased androgen receptor expression), 72 hours, CellTiter-Glo 2.0. Background: Cellular ATP, detected with luciferase, serves as a proxy for viable cell number.

In assay [2] the test system is T-Rex 293 cell line SC3 cells lacking increased expression of androgen receptor protein. In words: Cellular growth inhibition, T-Rex 293 SC3 cells without doxycycline (CellTiter-Glo 2.0, 72 hours). The assay is classed as cell-based. To be noted: T-Rex 293 SC3 cells not exposed to doxycycline (no increased androgen receptor expression).

For orientation: GI50 means the concentration giving 50% growth inhibition. The low end stands for more potent growth inhibition, the high end for less potent growth inhibition. Regarding `COc1cc(O[C@H]2CC[C@H](NC(=O)c3ccc(N4CCC5(CCN(c6ccc(C7=N[C@@H](C)c8nnc(C)n8-c8sc(C)c(C)c87)cc6OC)CC5)C4)nn3)CC2)ccc1C#N` [Compound I-90], the GI50 is below 500 nM in the assay on VCaP cells (Homo sapiens, VCaP, 72 h); below 500 nM in assay [1]; below 500 nM in assay [2] (72 h).

Turning to `COc1cc(O[C@H]2CC[C@H](NC(=O)c3ccc(N4C[C@]5(F)CN(c6ccc(C7=N[C@@H](C)c8nnc(C)n8-c8sc(C)c(C)c87)cc6)C[C@]5(F)C4)nn3)CC2)ccc1C#N` [Compound I-91], the GI50 in the assay with VCaP cells (Homo sapiens, VCaP, 72 h) is below 500 nM; in assay [1], below 500 nM; in assay [2] (72 h) it was below 500 nM.

Take `COc1cc(O[C@H]2CC[C@H](NC(=O)c3ccc(N4CCC5(CCN(c6ccc(C7=N[C@@H](C)c8nnc(C)n8-c8sc(C)c(C)c87)c(F)c6)C5)C4)nn3)CC2)ccc1C#N` (some centres unmarked) [Compound I-92]: the GI50 is below 500 nM in the assay on VCaP cells (Homo sapiens, VCaP, 72 h); below 500 nM in assay [1]; below 500 nM in assay [2] (72 h).

On to `COc1cc(O[C@H]2CC[C@H](NC(=O)c3ccc(N4CCC5(CCN(c6ccc(C7=N[C@@H](C)c8nnc(C)n8-c8sc(C)c(C)c87)c(F)c6)C5)C4)nn3)CC2)ccc1C#N` (some centres unmarked) [Compound I-93], for which the GI50 (in the assay on VCaP cells (72 hours); in assay [1]; in assay [2]) was below 500 nM each time.

In the case of `COc1cc(O[C@H]2CC[C@H](NC(=O)c3ccc(N4CCC5(CCC(c6ccc(C7=N[C@@H](C)c8nnc(C)n8-c8sc(C)c(C)c87)cc6)C5)C4)nn3)CC2)ccc1C#N` (some centres unmarked) [Compound I-94], the GI50 in the assay on VCaP cells (Homo sapiens, VCaP, 72 h) is below 500 nM; in assay [1], below 500 nM; in assay [2] (72 h), below 500 nM.

For the molecule `COc1cc(O[C@H]2CC[C@H](NC(=O)c3ccc(N4CCC5(CCC(c6ccc(C7=N[C@@H](C)c8nnc(C)n8-c8sc(C)c(C)c87)cc6)C5)C4)nn3)CC2)ccc1C#N` (some centres unmarked) [Compound I-95], the GI50 (in the assay on VCaP cells (72 hours); in assay [1]; in assay [2]) was below 500 nM throughout.

As for `COc1cc(O[C@H]2CC[C@H](NC(=O)c3ccc(N4CCC5(CCC(c6ccc(C7=N[C@@H](C)c8nnc(C)n8-c8sc(C)c(C)c87)cc6)C5)C4)nn3)CC2)ccc1C#N` (some centres unmarked) [Compound I-96], the GI50 (with VCaP cells (72 hours); in assay [1]; in assay [2]) was below 500 nM in each case.

On to `COc1cc(O[C@H]2CC[C@H](NC(=O)c3ccc(N4CCC5(CCC(c6ccc(C7=N[C@@H](C)c8nnc(C)n8-c8sc(C)c(C)c87)cc6)C5)C4)nn3)CC2)ccc1C#N` (some centres unmarked) [Compound I-97], for which the GI50 (with VCaP cells (72 hours); in assay [1]; in assay [2]) was below 500 nM throughout.

Consider `COc1cc(O[C@H]2CC[C@H](NC(=O)c3ccc(N4CCC5(CCCN(c6ccc(C7=N[C@@H](C)c8nnc(C)n8-c8sc(C)c(C)c87)cc6)C5)C4)nn3)CC2)ccc1C#N` (some centres unmarked) [Compound I-99], for which the GI50 (with VCaP cells (72 hours); in assay [1]; in assay [2]) was below 500 nM each time.

As for `COc1cc(O[C@H]2CC[C@H](NC(=O)c3ccc(N4CCC5(CCC(c6ccc(C7=N[C@@H](Cc8ncco8)c8nnc(C)n8-c8sc(C)c(C)c87)cc6)CC5)C4)nn3)CC2)ccc1C#N` (stereo partly drawn) [Compound I-100, N-((1r,4r)-4-(4-cyano-3-methoxyphenoxy)cyclohexyl)-6-(8-(4-((S)-2,3,9-trimethyl-6-(oxazol-2-ylmethyl)-6H-thieno[3,2-f][1,2,4]triazolo[4,3-a][1,4]diazepin-4-yl)phenyl)-2-azaspiro[4.5]decan-2-yl) pyridazine-3-carboxamide], the GI50 in the assay with VCaP cells (Homo sapiens, VCaP, 72 h) was below 500 nM; in assay [1], below 500 nM; in assay [2] (72 h), below 500 nM.

Take `COc1cc(O[C@H]2CC[C@H](NC(=O)c3ccc(N4CCC5(CCC(c6ccc(C7=N[C@@H](Cc8ncco8)c8nnc(C)n8-c8sc(C)c(C)c87)cc6)CC5)C4)nn3)CC2)ccc1C#N` (some centres unmarked) [Compound I-101]: the GI50 (with VCaP cells (72 hours); in assay [1]; in assay [2]) was below 500 nM each time. In addition, the “Ratio of GI50's” value came to 1 in the assay on VCaP cells (GI50 of the top compound in the pair divided by GI50 of the lower compound) and 1 in assay [1] (GI50 of the top compound in the pair divided by GI50 of the lower compound, T-Rex 293 SC3 cells with doxycycline-induced androgen receptor).

Turning to `COc1cc(O[C@H]2CC[C@H](NC(=O)c3ccc(N4CCC5(CCN(c6ccc(C7=N[C@@H](C)c8nnc(C)n8-c8sc(C)c(C)c87)cc6C(C)C)CC5)C4)nn3)CC2)ccc1C#N` [Compound I-105, N-[4-(4-cyano-3-methoxy-phenoxy)cyclohexyl]-6-[8-[2-isopropyl-4-[(9S)-4,5,9,13-tetramethyl-3-thia1,8,11,12-tetrazatricyclo[8.3.0.0^2,6]trideca-2 (6),4,7,10,12-pentaen-7-yl]phenyl]-2,8-diazaspiro[4.5]decan-2-yl]pyridazine-3-carboxamide], the GI50 in the assay with VCaP cells (Homo sapiens, VCaP, 72 h) was 500 to 1500 nM; in assay [1] it was below 500 nM; in assay [2] (72 h), above 3000 nM.

Consider `COc1cc(O[C@H]2CC[C@H](NC(=O)c3ccc(N4C[C@H]5CN(c6ccc(C7=N[C@@H](Cc8ncco8)c8nnc(C)n8-c8sc(C)c(C)c87)cc6)C[C@H]5C4)nn3)CC2)ccc1C#N` [Compound I-106, 6-[(3aR,6aS)-2-[4-[(9S)-4,5,13-trimethyl-9-(oxazol-2-ylmethyl)-3-thia-1,8,11,12-tetrazatricyclo[8.3.0.0^2,6]trideca-2 (6),4,7,10,12-pentaen-7-yl]phenyl]-1,3,3a,4,6,6a-hexahydropyrrolo[3,4-c]pyrrol-5-yl]-N-[4-(4-cyano-3-methoxy-phenoxy)cyclohexyl]pyridazine-3-carboxamide], for which the GI50 in the assay with VCaP cells (Homo sapiens, VCaP, 72 h) was below 500 nM; in assay [1], below 500 nM; in assay [2] (72 h) it was below 500 nM.

For `COc1cc(O[C@H]2CC[C@H](NC(=O)c3ccc(N4CC(F)(F)C5(CCN(c6ccc(C7=N[C@@H](C)c8nnc(C)n8-c8sc(C)c(C)c87)cc6)CC5)C4)nn3)CC2)ccc1C#N` [Compound I-107, N-[4-(4-cyano-3-methoxy-phenoxy)cyclohexyl]-6-[4,4-difluoro-8-[4-[(9S)-4,5,9,13-tetramethyl-3-thia-1,8,11,12-tetrazatricyclo[8.3.0.0^2,6]trideca-2 (6),4,7,10,12-pentaen-7-yl]phenyl]-2,8-diazaspiro[4.5]decan-2-yl]pyridazine-3-carboxamide], the GI50 in the assay on VCaP cells (Homo sapiens, VCaP, 72 h) is below 500 nM; in assay [1], below 500 nM; in assay [2] (72 h), below 500 nM.

`COc1cc(O[C@H]2CC[C@H](NC(=O)c3ccc(-n4cc5c(c4)CN(c4ccc(C6=N[C@@H](C)c7nnc(C)n7-c7sc(C)c(C)c76)cc4)C5)nn3)CC2)ccc1C#N` [Compound I-108]: the GI50 is below 500 nM in the assay on VCaP cells (Homo sapiens, VCaP, 72 h); below 500 nM in assay [1]; below 500 nM in assay [2] (72 h).

In the case of `COc1cc(O[C@H]2CC[C@H](NC(=O)c3ccc(N4CC5(CC(C#Cc6ccc(C7=NC(Cc8ncco8)c8nnc(C)n8-c8sc(C)c(C)c87)c(F)c6)C5)C4)nn3)CC2)ccc1C#N` (some centres unmarked) [Compound I-112], the GI50 is below 500 nM with VCaP cells (Homo sapiens, VCaP, 72 h); below 500 nM in assay [1]; above 3000 nM in assay [2] (72 h).

As for `COc1cc(O[C@H]2CC[C@H](NC(=O)c3ccc(N4CCC5(CCN(c6ccc(C7=N[C@@H](C)c8nnc(C)n8-c8sc(C)c(C)c87)cc6)CC5(F)F)C4)nn3)CC2)ccc1C#N` (some centres unmarked) [Compound I-113], the GI50 in the assay with VCaP cells (Homo sapiens, VCaP, 72 h) is below 500 nM; in assay [1] it was below 500 nM; in assay [2] (72 h), below 500 nM.

In the case of `COc1cc(O[C@H]2CC[C@H](NC(=O)c3ccc(N4CC5(CCC5)C5(CCN(c6ccc(C7=N[C@@H](C)c8nnc(C)n8-c8sc(C)c(C)c87)cc6)CC5)C4)nn3)CC2)ccc1C#N` [Compound I-114], the GI50 with VCaP cells (Homo sapiens, VCaP, 72 h) is below 500 nM; in assay [1] it was below 500 nM; in assay [2] (72 h), below 500 nM.

In the case of `COc1cc(O[C@H]2CC[C@H](NC(=O)c3ccc(N4CCC5(CCN(c6ccc(C7=N[C@@H](C)c8nnc(C)n8-c8sc(C)c(C)c87)cc6)CC5(F)F)C4)nn3)CC2)ccc1C#N` (some centres unmarked) [Compound I-116], the GI50 (in the assay with VCaP cells (72 hours); in assay [1]; in assay [2]) was below 500 nM in each case.

`COc1cc(O[C@H]2CC[C@H](NC(=O)c3ccc(N4CC(F)(F)C5(CCN(c6ccc(C7=N[C@@H](C)c8nnc(C)n8-c8sc(C)c(C)c87)cc6)C5)C4)nn3)CC2)ccc1C#N` (some centres unmarked) [Compound I-117]: the GI50 in the assay with VCaP cells (Homo sapiens, VCaP, 72 h) is below 500 nM; in assay [1] it was below 500 nM; in assay [2] (72 h), below 500 nM.

`COc1cc(O[C@H]2CC[C@H](NC(=O)c3ccc(N4C[C@]5(C)CN(c6ccc(C7=N[C@@H](Cc8ncco8)c8nnc(C)n8-c8sc(C)c(C)c87)cc6)C[C@]5(C)C4)nn3)CC2)ccc1C#N` [Compound I-118]: the GI50 in the assay on VCaP cells (Homo sapiens, VCaP, 72 h) was below 500 nM; in assay [1], below 500 nM; in assay [2] (72 h), below 500 nM.

Turning to `COc1cc(O[C@H]2CC[C@H](NC(=O)c3ccc(N4C[C@]5(F)CN(c6ccc(C7=N[C@@H](Cc8ncco8)c8nnc(C)n8-c8sc(C)c(C)c87)cc6)C[C@]5(F)C4)nn3)CC2)ccc1C#N` [Compound I-119], the GI50 in the assay on VCaP cells (Homo sapiens, VCaP, 72 h) is below 500 nM; in assay [1], below 500 nM; in assay [2] (72 h), below 500 nM.

`COc1cc(O[C@H]2CC[C@H](NC(=O)c3ccc(N4CC(C)(C)C5(CCN(c6ccc(C7=N[C@@H](C)c8nnc(C)n8-c8sc(C)c(C)c87)cc6)CC5)C4)nn3)CC2)ccc1C#N` [Compound I-120]: the GI50 in the assay on VCaP cells (Homo sapiens, VCaP, 72 h) was below 500 nM; in assay [1], below 500 nM; in assay [2] (72 h) it was below 500 nM.

Regarding `COc1cc(O[C@H]2CC[C@H](NC(=O)c3ccc(N4CCC5(CCC(c6ccc(C7=N[C@@H](C)c8nnc(C)n8-c8sc(C)c(C)c87)cc6C(C)C)CC5)C4)nn3)CC2)ccc1C#N` (some centres unmarked) [Compound I-121], the GI50 with VCaP cells (Homo sapiens, VCaP, 72 h) was below 500 nM; in assay [1], below 500 nM; in assay [2] (72 h) it was above 3000 nM.

In the case of `COc1cc(O[C@H]2CC[C@H](NC(=O)c3ccc(N4CCC5(CCC(c6ccc(C7=N[C@@H](C)c8nnc(C)n8-c8sc(C)c(C)c87)cc6C(C)C)CC5)C4)nn3)CC2)ccc1C#N` (some centres unmarked) [Compound I-122], the GI50 in the assay with VCaP cells (72 hours) was 500 to 1500 nM; in assay [1], below 500 nM; in assay [2] it was 1500 to 3000 nM.
